Reference: patent US10513709B2, “Somatic cell nuclear transfer methods” (priority 2013, dated 2019)

How the values were obtained:
[1] = system: enucleated mouse oocytes; assay: Chromosome segregation at the first mitosis after nuclear transfer; type: cell-based
Source text: To further investigate the mechanism of genomic instability after somatic cell nuclear transfer, we transferred genomes of somatic and embryonic mouse cells into enucleated mouse oocytes. As a control for our manipulations, we transplanted oocyte genomes from one MII oocyte to another. We first quantified the number of abnormal anaphase figures in unmanipulated oocytes, including bridges, fragments, and missegregating chromosomes. Abnormalities in parthenotes were few, or less than 5 percent at anaphase of the second meiosis and the first mitosis (FIG. 13A). […] Upon transfer of mitotic fibroblast or ES cell genomes into MII oocytes, the frequency of these abnormalities remained unaltered, or 6% and 6.9%. […] Abnormal anaphase figures were further increased when using interphase genomes of either cumulus cells or T cells.
As different cell types are known to differ in their gene expression pattern, we first determined whether gene expression during the first cell cycle was required for a normal chromosome segregation at the first embryonic mitosis. […] As cell-type specific gene expression appeared to be irrelevant to chromosome segregation at the first mitosis, we investigated whether other cell-type specific properties of the genome were of importance. It appeared conceivable that for normal chromosome segregation, the prior duplication of the genome at interphase must also be normal. To distinguish whether the chromosome segregation we observed were due to abnormal spindle attachment to chromosomes or due to structural deficiencies that can arise during DNA replication, we stained anaphases with antibodies recognizing centromeres. […]
To determine whether other parameters known to affect the developmental efficiency after somatic cell nuclear transfer affected the fidelity of segregation at the first mitosis, we investigated the role of the nuclear structure. […] We transferred somatic nuclei within the first hour post activation, and analyzed chromosome segregation at the first mitosis. […]

[2] = system: human oocytes; assay: Development of human somatic cell nuclear transfer oocytes beyond the cleavage stage; type: cell-based
Protocol: Oocytes were enucleated using microtubule birefringence (Oosight) as described previously by Noggle et al., 2011. Nuclear transfer was performed by fusion of somatic cells to oocytes using inactivated Sendai virus diluted 1:10 to 1:20 in suspension medium. Fusion was confirmed visually. 1-3 hours post fusion, oocytes were activated using 3 μM ionomycin in Global total for 5 minutes at 37 degrees celsius, followed by culture in 10 μM puromycin, 2 mM 6-DMAP, as well as the histone deacetylase (HDAC) inhibitors scriptaid and nch51 for 4 to 4.5 hours. Activated constructs were cultured in HDAC inhibitor for an additional 10-16 hours, followed by culture in Global total only. Culture was performed in a MINC incubator fed with gas containing 6% CO2, 5% oxygen and 89% nitrogen. Calcium-free medium was used for some of the manipulations resulting in nuclear transfer ES cells.
For some of the experiments described above additional modifications were introduced as described in Tachibana et al., 2013. Caffeine at a 1 mM concentration was added to the incubation medium during enucleation and oocyte fusion. Oocytes were activated using 2-4 pulses of 50 μs width at 2.7 kV/cm in mannitol containing fusion medium using an LF201 pulser (Nepagene), followed by 4 hours of culture in 2 mM 6-DMAP. Activated constructs were cultured in Global total containing 10% FBS and TSA for 12 hours, followed by culture to the blastocysts stage in medium containing 10% FBS.
The derivation of nuclear transfer ES cell lines from BJ fibroblasts at passage 11 was performed using nuclear transfer 30 min prior to the removal of the oocyte genome in the presence of 1 mM caffeine. Derivation of the adult cell NT-ES cell line was performed using somatic cells at passage 8, from a subject with T1D (ID-1018). Oocytes were transported in GMOPSplus containing 1 mM caffeine. Upon completion of the manipulation, oocytes were incubated for 45 min-1 h in calcium-free MCZB, then placed in calcium containing medium for 10 min prior to activation and culture as described above. Oocyte activation was performed within 2 hours post transfer using 4 electrical pulses, followed by incubation in medium containing HDAC inhibitors scriptaid and nch51, in addition to 10 μg/ml puromycin and 2 mM 6-DMAP for 4 hours, and thereafter, medium containing HDAC inhibitor for 15 hours. Culture was performed in a Heracell 150i incubator containing 5% CO2 at 37° C., in Global medium (IVFonline LGGG-050) containing 10% fetal bovine serum. ES cell derivation was conducted in medium containing DMEM/F12 supplemented with 10% KO-SR and 10% FBS, Rock inhibitor Y-27632, thiazovivin, non-essential amino acids, 10 ng/ml bFGF, Glutamax, and beta mercaptoethanol (all reagents from Life Technologies). Upon attachment, trophectoderm cells were ablated using laser pulses using a Lykos laser (Hamilton Thorne). Outgrowths were apparent within 10 days of plating, and were picked when colonies reached a size of about 1 mm in diameter. Passaging was done enzymatically using TrpLE (Life Technologies) and standard ES cell medium (substituting FBS with KO-SR and DMEM/F12 with KO-DMEM) using Rock inhibitor Y-27632 for the first day after plating.

[3] = system: oocytes; details: oocyte activation with puromycin versus 6-dmap; cited from earlier work
[4] = system: enucleated human oocytes; assay: Activation and polar body extrusion after transfer of a mitotic somatic genome; type: cell-based
Protocol: We next sought to determine the timing and molecular mechanism of these chromosomal abnormalities. We reasoned that if the removal of the oocyte spindle removed essential components, then these defects should be apparent at the second meiotic division. We removed the oocyte spindle-chromosome complex, and transferred the mitotic genome of a somatic cell that had been collected upon treatment with nocodazole and were kept on ice prior to transfer (FIG. 12A). Remarkably, within 1-2 hours post transfer, birefringent spindles were assembled in oocytes and chromosomes were aligned on the metaphase plate (FIGS. 12A, 12B, 12C). Upon artificial activation using a calcium ionophore and puromycin, 16/19 oocytes segregated somatic cell chromatin into a polar body and formed a single pronucleus in the activated oocyte (FIG. 12F-I). And like upon segregation of oocyte chromatin, a midbody formed and the chromosome passenger complex component survivin localized to the midbody (FIG. 12E). To examine the accuracy of chromosome segregation, (pseudo-) polar bodies were biopsied and the karyotype determined using nucleotide polymorphism arrays. […] However, when we analyzed the karyotype of blastomeres using nucleotide arrays, we found a large number of karyotypic abnormalities (FIG. 12I-L). […]

[5] = enucleated oocytes, agent used at activation / first 17 hours of embryo culture

## CN(C)c1ncnc2nc[nH]c12 [6-dmap, 6-(dimethylamino)purine]
[1]; somatic nuclei transferred within first hour after activation and kinase inhibition with 6-dmap
  dividing embryos severely abnormal: 90%

## CC[C@H](C)[C@@H]1NC(=O)CNC(=O)[C@@H]2Cc3c([nH]c4cc(O)ccc34)[S+]([O-])C[C@@H](NC(=O)CNC1=O)C(=O)N[C@@H](CC(N)=O)C(=O)N1C[C@H](O)C[C@H]1C(=O)N[C@@H]([C@@H](C)[C@@H](O)CO)C(=O)N2 (stereo partly drawn) [alpha amanitin]
[1]; added to culture medium during first cell cycle
  frequency of normal mitotic figures: did not significantly increase

## Cn1c(=O)c2c(ncn2C)n(C)c1=O [caffeine]
[2]; caffeine also during oocyte transport, calcium omitted from manipulation medium
  efficiency and quality of blastocysts: most efficient and high quality blastocyts
[2]; electrical pulse for activation and caffeine during oocyte manipulation
  blastocyst development: 10%

## COc1ccc(C[C@H](N)C(=O)N[C@H]2[C@@H](O)[C@H](n3cnc4c(N(C)C)ncnc43)O[C@@H]2CO)cc1 [puromycin]
[3]
  efficiency of parthenogenesis: more efficient
[2]; [5]
  development after somatic cell nuclear transfer: development still arrested at cleavage stages
[2]; oocyte genome not removed, puromycin for oocyte activation
  development after somatic cell nuclear transfer: efficient development to the blastocyst stage
[4]; activation with a calcium ionophore and puromycin
  oocytes segregating somatic chromatin into a polar body and forming a single pronucleus: 16/19
[4]; puromycin for 4 hours without meiotic kinase inhibitor, M-phase somatic genome
  oocyte activation shown by polar body extrusion: efficient polar body extrusion

## O=C(CCCCCN1C(=O)c2cccc3cccc(c23)C1=O)NO [scriptaid, 6-(1,3-Dioxo-1H,3H-benzo[de]isoquinolin-2-yl)-hexanoic acid hydroxyamide]
[1]; first mitosis
  frequency of chromosome segregation errors: decreased the frequency of chromosome segregation errors
[2]; [5]
  development after somatic cell nuclear transfer: development to the morula and blastocyst stage at a low frequency
